System: 324938-238-R-J1-PDC complex spheroids viability
Assay: Anticancer human tumor 324938-238-R-J1-PDC patient-derived bladder carcinoma cell line growth inhibition [CLK]
Settings: for IC50: curve of first compound; for viability, T/C: stronger effect = lower value
From the text: A high-throughput screen of multi-cell type tumor spheroids was designed to identify active combinations of […] and targeted small molecules. Complex spheroids include a stromal component modeled by human endothelial cells (HUVEC) and fibroblasts modeled by human mesenchymal stem cells (MSCs). The concentration ranges selected for each drug and investigational agent were based upon clinically achievable concentrations if the clinical Cmax of the agent was known.
Compounds. The drugs and investigational agents: cirtuvivint (SM08502; NSC835563), CC-671 (NSC850746), vemurafenib (NSC761431), tapotoclax (NSC804041), sotorasib (NSC818433), adagrasib (NSC831453), MRTX-1133 (NSC836407), BAY2416964 (NSC825713), copanlisib (NSC816437), inavolisib (NSC800729), abemaciclib (NSC768073), osimertinib (NSC779217), entinostat (NSC756642), eltanexor (KPT-8602, NSC794443), venetoclax (NSC766270), ceralasertib (NSC777638), bortezomib (NSC756655), olaparib (NSC753686), talazoparib (NSC767125), alisertib (NSC759677), peposertib (NSC802822), gemcitabine (NSC613327), 5-fluorouracil (NSC19893), SN-38 (NSC673596), oxaliplatin (NSC266046), paclitaxel (NSC125973), and doxorubicin (NSC123127), were obtained from the National Cancer Institute (NCI) Developmental Therapeutics Program Chemical Repository. The FDA-approved anticancer drug set is available from the Developmental Therapeutics Program at https://dtp.cancer.gov/organization/dscb/obtaining/available plates.htm. […] The stock solutions were prepared in dimethyl sulfoxide (DMSO, Sigma-Aldrich, St. Louis, MO, cat. D2650), except for the platinum complexes which were prepared in saline (Quality Biological, Gaithersburg, MD, cat. 114-055-101), at 800-fold the tested concentration and stored at -70 degrees C prior to their use. All drugs and investigational agents were tested over a range starting from a high concentration at or near the clinical Cmax and decreasing in half-log increments. If the clinical Cmax for an agent had not been determined, the highest concentration tested was 10 microM.
Cell Culture. All cells were maintained in an incubator at 37 degrees C and 5% CO2 with 95% humidity. The PDC lines were cultured according to standard operating procedures established by the NCI PDMR. Briefly, all PDCs were thawed and cultured in Matrigel-coated flasks prepared with a working solution of 1X Ham's F-12 nutrient mix, without supplementation (Invitrogen, Waltham, MA, cat. 11765054), 100 U/mL penicillin-streptomycin (Invitrogen, cat. 15140122), and 2.5% Matrigel (Corning Inc., Corning, NY, cat. 354248) for the first three passages. The 947758-054-R-J2-PDC line was cultured in 6B/Colon 1A media, which includes advanced DMEM/F-12 (Thermo Fisher Scientific, cat. 12634028), 10 mM HEPES (Thermo Fisher Scientific, cat. 15630080), 1X GlutaMAX supplement (Thermo Fisher Scientific, cat. 35050061), 0.1 mg/mL primocin (InvivoGen, cat. ant-pm-2), 10% defined fetal bovine serum, heat inactivated (HyClone Laboratories Inc., cat. SH30070.03HI), 1.25 mM N-Acetyl-L-cysteine (Sigma-Aldrich, cat. A9165), 10 mM nicotinamide (Sigma-Aldrich, cat. N0636), 1X B-27 supplement (Thermo Fisher Scientific, cat. 17504044), 1X N-2 supplement (Thermo Fisher Scientific, cat. 17502048), and 10 microM Y-27632 dihydrochloride (Tocris Bioscience, cat. 1254). The 876862-298-R-J1-PDC was cultured in 6E media, which includes all 6B/Colon 1A media components plus 50% L-WRN conditioned media (ATCC, cat. CRL-3276), 50 ng/mL recombinant human EGF recombinant protein (hEGF; Thermo Fisher Scientific, cat. PHG0311), 10 ng/mL recombinant human fibroblast growth factor 10 (hGFG-10; PeproTech, cat. 100-26), 1 ng/mL recombinant human fibroblast growth factor 2 (hFGF-2; PeproTech, cat. 100-18B), and 1 µM prostaglandin E2 (PGE2; Tocris, cat. 2296). The 227483-062-R1-J1-PDC line was cultured in Panc media, containing all 6E components except hFGF-2, with the addition of 500 nM SB-431542 (Selleckchem, cat. S1067) and 10 nM gastrin (Tocris, cat. 3006). […]

[1] = second compound 0.0316 µM, first compound 0.0316 µM
[2] = second compound 0.0316 µM, first compound 0.1 µM
[3] = second compound 0.0316 µM, first compound 0.316 µM
[4] = second compound 0.0316 µM, first compound 1 µM
[5] = second compound 0.0316 µM, first compound 3.16 µM
[6] = second compound 0.0316 µM, first compound 10 µM
[7] = second compound 0.1 µM, first compound 0.0316 µM
[8] = second compound 0.1 µM, first compound 0.1 µM
[9] = second compound 0.1 µM, first compound 0.316 µM
[10] = second compound 0.1 µM, first compound 1 µM
[11] = second compound 0.1 µM, first compound 3.16 µM
[12] = second compound 0.1 µM, first compound 10 µM
[13] = second compound 0.316 µM, first compound 0.0316 µM
[14] = second compound 0.316 µM, first compound 0.1 µM
[15] = second compound 0.316 µM, first compound 0.316 µM
[16] = second compound 0.316 µM, first compound 1 µM
[17] = second compound 0.316 µM, first compound 3.16 µM
[18] = second compound 0.316 µM, first compound 10 µM
[19] = second compound 1 µM, first compound 0.0316 µM
[20] = second compound 1 µM, first compound 0.1 µM
[21] = second compound 1 µM, first compound 0.316 µM
[22] = second compound 1 µM, first compound 1 µM
[23] = second compound 1 µM, first compound 3.16 µM
[24] = second compound 1 µM, first compound 10 µM
[25] = second compound 3.16 µM, first compound 0.0316 µM
[26] = second compound 3.16 µM, first compound 0.1 µM
[27] = second compound 3.16 µM, first compound 0.316 µM
[28] = second compound 3.16 µM, first compound 1 µM
[29] = second compound 3.16 µM, first compound 3.16 µM
[30] = second compound 3.16 µM, first compound 10 µM
[31] = second compound 10 µM, first compound 0.0316 µM
[32] = second compound 10 µM, first compound 0.1 µM
[33] = second compound 10 µM, first compound 0.316 µM
[34] = second compound 10 µM, first compound 1 µM
[35] = second compound 10 µM, first compound 3.16 µM
[36] = second compound 10 µM, first compound 10 µM
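Also: viability read after seven days of drug exposure.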
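For viability, T/C in this document: 100% = DMSO vehicle control wells.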

Compound: C#Cc1c(F)ccc2cc(O)cc(-c3ncc4c(N5CC6CCC(C5)N6)nc(OCC56CCCN5CC(F)C6)nc4c3F)c12 (stereo unspecified) + CN1CCN(c2cc(C(=O)Nc3cc4cc(-c5cnn(C)c5)ccc4cn3)ccn2)CC1
- IC50 (second compound 0.0316 µM): 5050 nM
- IC50 (second compound 0.1 µM): 1240 nM
- IC50 (second compound 0.316 µM): < 31.6 nM
- IC50 (second compound 1 µM): < 31.6 nM
- IC50 (second compound 3.16 µM): < 31.6 nM
- IC50 (second compound 10 µM): < 31.6 nM
- viability, T/C [1]: 77.5%
- viability, T/C [2]: 86.1%
- viability, T/C [3]: 74.5%
- viability, T/C [4]: 69.9%
- viability, T/C [5]: 56%
- viability, T/C [6]: 41.4%
- viability, T/C [7]: 57.3%
- viability, T/C [8]: 51.8%
- viability, T/C [9]: 52.7%
- viability, T/C [10]: 52.8%
- viability, T/C [11]: 38%
- viability, T/C [12]: 32.7%
- viability, T/C [13]: 28.2%
- viability, T/C [14]: 28%
- viability, T/C [15]: 22.2%
- viability, T/C [16]: 23.9%
- viability, T/C [17]: 21.5%
- viability, T/C [18]: 19.4%
- viability, T/C [19]: 2%
- viability, T/C [20]: 2.51%
- viability, T/C [21]: 2.35%
- viability, T/C [22]: 2.31%
- viability, T/C [23]: 1.37%
- viability, T/C [24]: 0.75%
- viability, T/C [25]: 0.13%
- viability, T/C [26]: 0.3%
- viability, T/C [27]: 0.16%
- viability, T/C [28]: 0.11%
- viability, T/C [29]: 0.15%
- viability, T/C [30]: 0.14%
- viability, T/C [31]: 0.11%
- viability, T/C [32]: 0.16%
- viability, T/C [33]: 1.1%
- viability, T/C [34]: 0.14%
- viability, T/C [35]: 0.15%
- viability, T/C [36]: 0.24%

Compound: C=C(F)C(=O)N1CCN(c2nc(OCC3CCCN3C)nc3c2CCN(c2cccc4cccc(Cl)c24)C3)CC1CC#N (stereo unspecified) + CN1CCN(c2cc(C(=O)Nc3cc4cc(-c5cnn(C)c5)ccc4cn3)ccn2)CC1
- IC50 (second compound 0.0316 µM): 3120 nM
- IC50 (second compound 0.1 µM): 1560 nM
- IC50 (second compound 0.316 µM): < 31.6 nM
- IC50 (second compound 1 µM): < 31.6 nM
- IC50 (second compound 3.16 µM): < 31.6 nM
- IC50 (second compound 10 µM): < 31.6 nM
- viability, T/C [1]: 75.2%
- viability, T/C [2]: 88.7%
- viability, T/C [3]: 81.8%
- viability, T/C [4]: 78.8%
- viability, T/C [5]: 49.6%
- viability, T/C [6]: 2.48%
- viability, T/C [7]: 60.9%
- viability, T/C [8]: 64%
- viability, T/C [9]: 57.3%
- viability, T/C [10]: 53.3%
- viability, T/C [11]: 43.3%
- viability, T/C [12]: 2.19%
- viability, T/C [13]: 25.4%
- viability, T/C [14]: 26.9%
- viability, T/C [15]: 22.3%
- viability, T/C [16]: 24.5%
- viability, T/C [17]: 19.6%
- viability, T/C [18]: 0.24%
- viability, T/C [19]: 2.43%
- viability, T/C [20]: 1.75%
- viability, T/C [21]: 2.24%
- viability, T/C [22]: 1.87%
- viability, T/C [23]: 0.88%
- viability, T/C [24]: 0.23%
- viability, T/C [25]: 0.21%
- viability, T/C [26]: 0.19%
- viability, T/C [27]: 0.24%
- viability, T/C [28]: 0.17%
- viability, T/C [29]: 0.33%
- viability, T/C [30]: 0.12%
- viability, T/C [31]: 0.34%
- viability, T/C [32]: 0.23%
- viability, T/C [33]: 0.23%
- viability, T/C [34]: 0.35%
- viability, T/C [35]: 0.2%
- viability, T/C [36]: 0.2%

Compound: CC(CO)NC(=O)c1cc(-c2ccc(Cl)cc2)nn(-c2cnn(C)c2)c1=O (stereo unspecified) + CN1CCN(c2cc(C(=O)Nc3cc4cc(-c5cnn(C)c5)ccc4cn3)ccn2)CC1
- IC50 (second compound 0.0316 µM): > 10000 nM
- IC50 (second compound 0.1 µM): 4990 nM
- IC50 (second compound 0.316 µM): < 31.6 nM
- IC50 (second compound 1 µM): < 31.6 nM
- IC50 (second compound 3.16 µM): < 31.6 nM
- IC50 (second compound 10 µM): < 31.6 nM
- viability, T/C [1]: 84.4%
- viability, T/C [2]: 92.8%
- viability, T/C [3]: 83.5%
- viability, T/C [4]: 81%
- viability, T/C [5]: 63.6%
- viability, T/C [6]: 50.9%
- viability, T/C [7]: 60.7%
- viability, T/C [8]: 62.8%
- viability, T/C [9]: 63.3%
- viability, T/C [10]: 55.7%
- viability, T/C [11]: 57.3%
- viability, T/C [12]: 41.3%
- viability, T/C [13]: 23.5%
- viability, T/C [14]: 25.9%
- viability, T/C [15]: 25.3%
- viability, T/C [16]: 25.8%
- viability, T/C [17]: 26.5%
- viability, T/C [18]: 21.4%
- viability, T/C [19]: 1.59%
- viability, T/C [20]: 1.8%
- viability, T/C [21]: 1.38%
- viability, T/C [22]: 1.23%
- viability, T/C [23]: 1.2%
- viability, T/C [24]: 1.04%
- viability, T/C [25]: 0.16%
- viability, T/C [26]: 0.21%
- viability, T/C [27]: 0.21%
- viability, T/C [28]: 0.15%
- viability, T/C [29]: 0.25%
- viability, T/C [30]: 0.67%
- viability, T/C [31]: 0.13%
- viability, T/C [32]: 0.19%
- viability, T/C [33]: 0.25%
- viability, T/C [34]: 0.2%
- viability, T/C [35]: 0.18%
- viability, T/C [36]: 0.22%

Reference: PubChem BioAssay AID2060621 (Molecular Pharmacology Branch, DTP, NCI, 2025)
